Laboratory results as given in ChEMBL document CHEMBL1201862, “PubChem BioAssay data set” (2004).
Activity calls are given as the source filed them. Cut-off read from the data, not from the text of the source, for most assays here: actives have a measured EC50 and inactives only a lower limit.

Assays:
[1] = NIH3T3 cell viability loss – ATP luminescence, mouse fibroblasts, counter-screen, dose response (AID 2010); assay type: functional, cell-based;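 note: cells exposed to compound for about 90 hours before reading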
[2] = biological target: T1, Rac GTPase-activating protein 1 (Homo sapiens, UniProt Q9H0H5); test: blockers of MgcRacGAP-driven Rac1 GTP hydrolysis – biochemical, ADP Hunter fluorescence, primary and confirmatory, confirmation (AID 624330); assay type: functional
T1 sequence (Q9H0H5 whole entry): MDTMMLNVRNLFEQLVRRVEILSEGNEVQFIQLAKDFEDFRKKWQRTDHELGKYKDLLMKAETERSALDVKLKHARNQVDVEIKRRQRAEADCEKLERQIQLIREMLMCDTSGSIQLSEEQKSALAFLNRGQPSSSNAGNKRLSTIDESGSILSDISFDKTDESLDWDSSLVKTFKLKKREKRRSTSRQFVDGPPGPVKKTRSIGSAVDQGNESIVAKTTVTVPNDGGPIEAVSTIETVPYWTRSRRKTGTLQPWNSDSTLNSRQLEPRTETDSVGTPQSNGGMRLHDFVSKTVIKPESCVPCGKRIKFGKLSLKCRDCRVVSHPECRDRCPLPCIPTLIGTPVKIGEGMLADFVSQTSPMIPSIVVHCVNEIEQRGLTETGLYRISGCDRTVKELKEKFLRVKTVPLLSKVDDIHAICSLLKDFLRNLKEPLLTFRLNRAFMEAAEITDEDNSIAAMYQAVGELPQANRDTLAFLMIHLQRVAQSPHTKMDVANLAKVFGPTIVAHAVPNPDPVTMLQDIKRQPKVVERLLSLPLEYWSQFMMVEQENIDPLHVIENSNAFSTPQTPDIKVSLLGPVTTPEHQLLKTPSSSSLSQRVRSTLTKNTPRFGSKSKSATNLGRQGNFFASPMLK

[3] = Trypanosoma cruzi growth suppression in host cells – NIH3T3 host cells, beta-gal luminescence, confirmation (AID 2044); assay type: functional, cell-based;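 note: intracellular parasites grown in NIH/3T3 mouse fibroblasts as host cells; luminescent beta-galactosidase reporter signal from transgenic T. cruzi replicating inside host cells; inhibitors lower the luminescence signal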
Streptokinase A = biological target: T2, Streptokinase A (Streptococcus pyogenes serotype M1, UniProt P10520); test: viability-normalized secreted streptokinase activity reduction – plasminogen activation absorbance, OD405, dose response (AID 1914); assay type: functional, Streptococcus pyogenes M1 GAS;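 note: secreted streptokinase activity via plasminogen activation per viability signal from cell pellet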
T2 sequence (P10520 whole entry): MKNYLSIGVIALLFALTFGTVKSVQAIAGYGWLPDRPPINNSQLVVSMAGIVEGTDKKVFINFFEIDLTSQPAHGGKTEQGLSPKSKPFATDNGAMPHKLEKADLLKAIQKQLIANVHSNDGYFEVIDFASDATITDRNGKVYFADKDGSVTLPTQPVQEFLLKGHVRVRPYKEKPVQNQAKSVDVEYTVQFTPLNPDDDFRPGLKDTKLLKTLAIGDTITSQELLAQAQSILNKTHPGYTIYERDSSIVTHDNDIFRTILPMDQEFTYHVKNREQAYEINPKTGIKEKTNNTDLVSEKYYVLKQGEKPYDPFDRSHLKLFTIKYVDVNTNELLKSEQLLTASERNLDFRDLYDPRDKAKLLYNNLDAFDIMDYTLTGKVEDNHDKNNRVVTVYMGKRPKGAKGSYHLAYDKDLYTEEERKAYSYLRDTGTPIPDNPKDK

INS1 = test: INS-1E survival protection against cytokine death – cell-based, luminescence, retest, dose response (AID 449756); assay type: functional; conditions: Rattus norvegicus;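 note: cell death triggered by IL-1 beta plus TNF-alpha plus IFN-gamma mixture; protective hits raise ATP signal compared with cytokine alone wells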
[4] = tested on: Streptococcus sp. 'group A'; test: Streptococcus pyogenes SK(-)GAS viability under kanamycin – luminescence, BacTiterGlo, confirmation, counter-screen for streptokinase expression inhibitor project, dose response (AID 1900); assay type: functional, organism-based
[5] = Luminescence Cell-Based Dose Retest to Confirm Inhibitors of Cancer Stem Cells. [Related pubchem assays (depositor defined):AID2717, AID2721]; assay type: functional; conditions: Homo sapiens
Streptococcus = test: GAS UMAA2166 growth inhibition – luminescence, BacTiterGlo, counter-screen for streptokinase expression inhibitor project, dose response (AID 1915); assay type: functional, organism-based;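 note: potency for reduction of bacterial viability or growth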
[6] = fluconazole-exposed Candida albicans growth modulators – fluorescence, retest, confirmation (AID 2467); assay type: functional, cell-based
[7] = biological target: T3, Replicative DNA helicase DnaB (Mycobacterium tuberculosis, UniProt P9WMR3); test: DnaB intein splicing inhibitors, dose response, biochemical, cell-free fluorescence (AID 449749); assay type: functional
T3 sequence (P9WMR3 whole entry): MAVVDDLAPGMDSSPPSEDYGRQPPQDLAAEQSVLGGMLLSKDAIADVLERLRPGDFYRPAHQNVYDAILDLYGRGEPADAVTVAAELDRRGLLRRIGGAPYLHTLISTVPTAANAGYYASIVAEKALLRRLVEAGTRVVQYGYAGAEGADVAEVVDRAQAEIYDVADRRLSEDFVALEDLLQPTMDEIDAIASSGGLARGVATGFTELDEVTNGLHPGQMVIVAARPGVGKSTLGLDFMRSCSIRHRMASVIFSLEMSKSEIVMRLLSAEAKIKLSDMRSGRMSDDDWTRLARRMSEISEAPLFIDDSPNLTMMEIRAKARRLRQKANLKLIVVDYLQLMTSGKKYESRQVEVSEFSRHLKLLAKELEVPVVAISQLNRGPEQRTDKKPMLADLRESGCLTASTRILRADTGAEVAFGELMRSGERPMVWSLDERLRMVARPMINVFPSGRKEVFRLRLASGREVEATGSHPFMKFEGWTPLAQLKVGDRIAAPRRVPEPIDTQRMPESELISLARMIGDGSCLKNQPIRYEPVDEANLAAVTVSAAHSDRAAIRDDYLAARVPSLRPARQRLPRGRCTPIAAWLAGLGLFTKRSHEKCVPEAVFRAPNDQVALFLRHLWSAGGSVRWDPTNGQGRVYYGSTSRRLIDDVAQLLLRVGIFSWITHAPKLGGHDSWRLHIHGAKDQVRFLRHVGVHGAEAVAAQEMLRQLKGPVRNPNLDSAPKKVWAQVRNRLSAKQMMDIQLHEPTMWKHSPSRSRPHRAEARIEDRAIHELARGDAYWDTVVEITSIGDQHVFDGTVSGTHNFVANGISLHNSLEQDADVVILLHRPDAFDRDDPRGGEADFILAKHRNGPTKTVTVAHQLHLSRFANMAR

Protein RecA = biological target: T4, Protein RecA (Mycobacterium tuberculosis, UniProt P9WHJ3); test: Fluorescence Cell-Free Homogeneous Dose Retest to Identify Inhibitors of RecA-Intein Splicing Activity. [Related pubchem assays (depositor defined):AID2097, AID2223, AID489010, AID492950]; assay type: functional
T4 sequence (P9WHJ3 whole entry): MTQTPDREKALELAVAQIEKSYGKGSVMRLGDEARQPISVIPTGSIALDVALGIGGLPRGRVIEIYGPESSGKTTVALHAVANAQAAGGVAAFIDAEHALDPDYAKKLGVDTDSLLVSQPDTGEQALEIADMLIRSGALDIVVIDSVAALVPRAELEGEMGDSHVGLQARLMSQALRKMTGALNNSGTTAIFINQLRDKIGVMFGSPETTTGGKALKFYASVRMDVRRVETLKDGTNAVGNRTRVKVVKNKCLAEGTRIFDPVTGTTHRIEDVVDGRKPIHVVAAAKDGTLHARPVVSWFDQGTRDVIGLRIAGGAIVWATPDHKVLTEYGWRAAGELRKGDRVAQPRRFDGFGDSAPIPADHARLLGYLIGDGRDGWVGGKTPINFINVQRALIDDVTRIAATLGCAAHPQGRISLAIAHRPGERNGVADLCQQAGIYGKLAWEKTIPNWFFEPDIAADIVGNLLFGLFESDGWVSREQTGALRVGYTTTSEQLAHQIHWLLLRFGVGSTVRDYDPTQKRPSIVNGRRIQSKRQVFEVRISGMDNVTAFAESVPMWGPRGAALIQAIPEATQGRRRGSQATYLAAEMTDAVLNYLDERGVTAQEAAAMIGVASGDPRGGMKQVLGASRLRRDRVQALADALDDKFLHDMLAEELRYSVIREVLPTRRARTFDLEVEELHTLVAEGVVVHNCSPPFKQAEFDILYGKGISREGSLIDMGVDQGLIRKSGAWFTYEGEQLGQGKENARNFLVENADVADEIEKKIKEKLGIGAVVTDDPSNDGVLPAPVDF

[8] = NIH-3T3 fibroblast cytotoxicity, dose response, cytotoxicity control, cell-based, fluorescence, Alamar Blue, secondary assay (AID 2327); assay type: functional;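 note: NIH-3T3 mouse fibroblasts cultured with fluconazole at 8 µg/mL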

## CCOc1cc(NC(=O)c2ccccc2C(=O)O)c(OCC)cc1NC(=O)c1ccccc1F
[1]
  EC50: > 60 µM (not active)
[2]
  IC50: 54.8 µM (active)
[3]
  EC50: 5.83 µM (active)

## CC(C)C(=O)NC(c1ccccc1)c1cc([N+](=O)[O-])c2cccnc2c1O (stereo not given)
Streptokinase A
  EC50: > 150 µM (not active)
INS1
  AC50: 6.59 µM (active)
[4]
  EC50: 2.12 µM (active)
[5]
  AC50: 1.27 µM (active)
Streptococcus
  EC50: 2.98 µM (active)

## Oc1ccc(O)c2c1C1c3ccccc3C2c2ccccc21
[6]
  EC50: 2.94 µM (active)
[7]
  AC50: 34.5 µM (active)
Protein RecA
  EC50: 2.08 µM (active)
[8]
  EC50: 25 µM (active)

## O=C(N/N=C/c1ccc(O)c(O)c1)c1ccc(-n2cnnn2)cc1
[2]
  IC50: 18.6 µM (active)

## CCOC(=O)C1CCCN(C(S)=Nc2ccc(Nc3ccccc3)cc2)C1 (stereo not given)
[2]
  IC50: 51 µM (active)

## COC(CN(C(=O)CCl)C(C(=O)NC1CCCC(C)C1C)c1ccc(C)cc1)OC (stereo not given)
[7]
  AC50: 24.6 µM (active)
Protein RecA
  EC50: 2.11 µM (active)

## COc1ccccc1-n1c(=O)c2c3c(sc2n2c(S)nnc12)CCC3
[2]
  IC50: 50.3 µM (active)

## Cc1ccccc1-c1ccnc2[nH]n(-c3ccccc3)c(=O)c12
[6]
  EC50: > 38 µM (not active)
[8]
  EC50: > 160 µM (inactive)

## COc1cc(/C=N/Nc2nc(Nc3ccccc3)nc(-n3nc(C)cc3C)n2)cc(OC)c1OC
Streptokinase A
  EC50: > 150 µM (not active)
[4]
  EC50: 5.1 µM (active)
[5]
  AC50: 3.63 µM (active)
Streptococcus
  EC50: 13.8 µM (active)
[1]
  EC50: 7.23 µM (active)
[3]
  EC50: 0.737 µM (active)

## O=C1NC[C@@H](Cc2cccc3ccccc23)N(CCCCC2CCCCC2)C1=O
[4]
  EC50: 3.38 µM (active)
[5]
  AC50: 3.84 µM (active)
Streptococcus
  EC50: 7.07 µM (active)

## COc1ccc(N2CCN(C(=O)CCCn3nnnc3CN3CCOCC3)C(C)C2)cc1 (stereo not given)
[2]
  IC50: 150 µM (active)

## CCn1nnnc1NC(=O)c1cc(Cl)c(OC)c(Cl)c1
[6]
  EC50: 2.51 µM (active)
[8]
  EC50: > 160 µM (inactive)

## CCc1n[nH]c2c1C(c1ccc(C)o1)C(C#N)=C(N)O2 (stereo not given)
[7]
  AC50: 37.3 µM (active)
Protein RecA
  EC50: 4.31 µM (active)

## COc1ccc(-c2csc(N(CC3CCCO3)C(=O)c3ccco3)n2)cc1 (stereo not given)
[6]
  EC50: > 38 µM (not active)
[8]
  EC50: > 160 µM (inactive)

## CCN(CC(=O)Nc1ccc(S(=O)(=O)N2CCCC2)cc1)CC(=O)Nc1cccc(OC)c1
[2]
  IC50: 35.5 µM (active)

## COc1ccc(COC(=O)N/N=C(\C)CC(=O)Nc2ccc(Cl)cn2)cc1
[7]
  AC50: 5.46 µM (active)
Protein RecA
  EC50: 4.27 µM (active)

## COc1cc(/C=C/C(=O)OCC(=O)Nc2cccc(F)c2)ccc1O
[2]
  IC50: 41.6 µM (active)

## CCOc1cc(/C=C/c2cccc[n+]2C)ccc1O
[2]
  IC50: 22.9 µM (active)

## CC(C)NC(=S)NC(c1ccccc1)(c1ccccc1)c1ccccc1
Streptokinase A
  EC50: 11.7 µM (active)
[7]
  AC50: 3.07 µM (active)
Protein RecA
  EC50: 136 µM (inconclusive)

## CCN=C(S)N1N=C2c3ccccc3CCC2C1c1ccc(F)cc1 (stereo not given)
[5]
  AC50: 1.46 µM (active)

## Cc1c(Cl)cccc1Nc1nnc(S)s1
[2]
  IC50: 108 µM (active)

## CC1CCCN(C(=O)COc2ccc(NC(=O)c3cccs3)cc2)C1 (stereo not given)
[7]
  AC50: > 380 µM (inactive)
Protein RecA
  EC50: > 380 µM (inactive)

## O=c1c2cc(Br)ccc2nc(-c2ccccc2)n1O
[6]
  EC50: 1.99 µM (active)
[8]
  EC50: 70.4 µM (active)

## CCc1c(C)sc2nc(C(C)C)nc(SCC(=O)N3CCc4ccccc4C3)c12
Streptokinase A
  EC50: 2.38 µM (active)
INS1
  AC50: 1.94 µM (active)
[4]
  EC50: 9.77 µM (active)
[5]
  AC50: 4.63 µM (active)
Streptococcus
  EC50: 15.1 µM (active)

## O=C(O)/C=C/C(=O)Nc1ccc(SC(F)(F)C(F)(F)C(F)(F)F)cc1
[7]
  AC50: 11.7 µM (active)
Protein RecA
  EC50: 2.59 µM (active)

## CC1(C)CC[C@]2(CO)CC[C@]3(C)C(=CCC4[C@@]5(C)CC[C@H](O)[C@@](C)(CO)C5CC[C@]43C)[C@@H]2C1 (stereo not given in full)
[5]
  AC50: 3.13 µM (active)

## COc1ccccc1CN1CCN(Cc2cc(OC)c(OC)cc2OC)CC1
[2]
  IC50: 73.5 µM (active)

## O=C1NN(c2ccc(F)cc2)C(=O)/C1=C/c1cccs1
[6]
  EC50: > 38 µM (not active)
[8]
  EC50: > 160 µM (inactive)
